Data taken from ChEMBL document CHEMBL1201862, “PubChem BioAssay data set” (2004).
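Tested at 5 concentrations; 48 h exposure; 96-well plates; endpoints linearly interpolated, else capped at highest concentration. Abbreviation: GI50, concentration required for 50% inhibition of growth.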 Calls of active or inactive are those of the source. Rule as the data show it: active = GI50 up to about 1.1 µM and inactive = higher.

Experiments:
Experiment in all cases: NCI-60 cell line screen, 48 h
UACC-257 = system: UACC-257
OVCAR-5 = system: OVCAR-5
OVCAR-3 = system: OVCAR-3
HCT-15 = system: HCT-15
786-0 = system: 786-0
Malme-3M = system: Malme-3M
HCC 2998 = system: HCC 2998
SR = system: SR
SK-MEL-5 = system: SK-MEL-5
OVCAR-8 = system: OVCAR-8
PC-3 = system: PC-3
HOP-62 = system: HOP-62
CAKI-1 = system: CAKI-1
RPMI-8226 = system: RPMI-8226
UO-31 = system: UO-31
KM12 = system: KM12
M14 = system: M14
NCI-H522 = system: NCI-H522
MDA-MB-231 = system: MDA-MB-231
COLO 205 = system: COLO 205
A549 = system: A549
SK-MEL-28 = system: SK-MEL-28
NCI-H460 = system: NCI-H460
BT-549 = system: BT-549
SN12C = system: SN12C
SF-295 = system: SF-295
RXF 393 = system: RXF 393
ACHN = system: ACHN
HOP-92 = system: HOP-92
NCI/ADR-RES = system: NCI/ADR-RES
SNB-75 = system: SNB-75
U-251 = system: U-251
DU-145 = system: DU-145
SK-MEL-2 = system: SK-MEL-2
Hs-578T = system: Hs-578T
MOLT-4 = system: MOLT-4
HCT-116 = system: HCT-116
SF-268 = system: SF-268
SW-620 = system: SW-620
NCI-H23 = system: NCI-H23
CCRF-CEM = system: CCRF-CEM
IGROV-1 = system: IGROV-1
T47D = system: T47D
MCF7 = system: MCF7
SF-539 = system: SF-539
A498 = system: A498
SK-OV-3 = system: SK-OV-3
OVCAR-4 = system: OVCAR-4
HL-60 = system: HL-60
SNB-19 = system: SNB-19
MDA-MB-435 = system: MDA-MB-435
NCI-H226 = system: NCI-H226
EKVX = system: EKVX
K562 = system: K562
HT-29 = system: HT-29
UACC-62 = system: UACC-62
TK-10 = system: TK-10
MDA-N = system: MDA-N
LOX IMVI = system: LOX IMVI

Question: Which results are given for CS(=O)(=O)c1ccc(/N=C/C=C/Nc2ccc(S(C)(=O)=O)cc2)cc1?
Answer: GI50 (UACC-257): > 100 µM (inactive); GI50 (OVCAR-5): > 100 µM (inactive); GI50 (OVCAR-3): > 100 µM (inactive); GI50 (HCT-15): > 100 µM; GI50 (786-0): > 100 µM (inactive); GI50 (Malme-3M): > 100 µM (inactive); GI50 (HCC 2998): > 100 µM (inactive); GI50 (SR): > 100 µM (inactive); GI50 (SK-MEL-5): > 100 µM (inactive); GI50 (OVCAR-8): > 100 µM (inactive); GI50 (PC-3): > 100 µM (inactive); GI50 (HOP-62): > 100 µM (inactive); GI50 (CAKI-1): > 100 µM (inactive); GI50 (RPMI-8226): > 100 µM (inactive); GI50 (UO-31): > 100 µM (inactive); GI50 (KM12): 27.4 µM (inactive); GI50 (M14): > 100 µM (inactive); GI50 (NCI-H522): > 100 µM (inactive); GI50 (MDA-MB-231): > 100 µM (inactive); GI50 (COLO 205): > 100 µM (inactive); GI50 (A549): > 100 µM (inactive); GI50 (SK-MEL-28): > 100 µM (inactive); GI50 (NCI-H460): > 100 µM (inactive); GI50 (BT-549): > 100 µM (inactive); GI50 (SN12C): > 100 µM (inactive); GI50 (SF-295): > 100 µM (inactive); GI50 (RXF 393): > 100 µM (inactive); GI50 (ACHN): > 100 µM (inactive); GI50 (HOP-92): > 100 µM (inactive); GI50 (NCI/ADR-RES): > 100 µM (inactive); GI50 (SNB-75): > 100 µM (inactive); GI50 (U-251): > 100 µM (inactive); GI50 (DU-145): > 100 µM (inactive); GI50 (SK-MEL-2): > 100 µM (inactive); GI50 (Hs-578T): > 100 µM (inactive); GI50 (MOLT-4): > 100 µM (inactive); GI50 (HCT-116): > 100 µM (inactive); GI50 (SF-268): > 100 µM (inactive); GI50 (SW-620): > 100 µM (inactive); GI50 (NCI-H23): > 100 µM (inactive); GI50 (CCRF-CEM): > 100 µM (inactive); GI50 (IGROV-1): > 100 µM (inactive); GI50 (T47D): > 100 µM (inactive); GI50 (MCF7): > 100 µM (inactive); GI50 (SF-539): > 100 µM (inactive); GI50 (A498): > 100 µM (inactive); GI50 (SK-OV-3): > 100 µM (inactive); GI50 (OVCAR-4): > 100 µM (inactive); GI50 (HL-60): > 100 µM (inactive); GI50 (SNB-19): > 100 µM (inactive); GI50 (MDA-MB-435): > 100 µM (inactive); GI50 (NCI-H226): > 100 µM (inactive); GI50 (EKVX): > 100 µM (inactive); GI50 (K562): > 100 µM (inactive); GI50 (HT-29): > 100 µM (inactive); GI50 (UACC-62): > 100 µM (inactive); GI50 (TK-10): > 100 µM (inactive); GI50 (MDA-N): > 100 µM (inactive)

Question: COc1ccc2c(c1)CCC(CN1CCN(CCOC(c3ccc(F)cc3)c3ccc(F)cc3)CC1)=C2 was tested. Which GI50 (UACC-257) did it give?
Answer: 9.18 µM (inactive)

Question: And the GI50 (OVCAR-5)?
Answer: 23.1 µM (inactive)

Question: What about the GI50 (OVCAR-3) of the same molecule?
Answer: 16.9 µM (inactive)

Question: And the GI50 (LOX IMVI)?
Answer: 15.6 µM (inactive)

Question: And the GI50 (HCT-15)?
Answer: 3.53 µM

Question: And the GI50 (786-0)?
Answer: 11.9 µM (inactive)

Question: What about the GI50 (Malme-3M) of the same molecule?
Answer: 14.4 µM (inactive)

Question: And the GI50 (HCC 2998)?
Answer: 4.89 µM (inactive)

Question: And the GI50 (SR)?
Answer: 3.71 µM (inactive)

Question: What about the GI50 (SK-MEL-5) of the same molecule?
Answer: 5.22 µM (inactive)

Question: And the GI50 (OVCAR-8)?
Answer: 18.8 µM (inactive)

Question: And the GI50 (PC-3)?
Answer: 16.8 µM (inactive)

Question: What about the GI50 (HOP-62) of the same molecule?
Answer: 33.9 µM (inactive)

Question: What about the GI50 (CAKI-1) of the same molecule?
Answer: 18.9 µM (inactive)

Question: And the GI50 (RPMI-8226)?
Answer: 4.52 µM (inactive)

Question: What about the GI50 (KM12) of the same molecule?
Answer: 15.1 µM (inactive)

Question: And the GI50 (M14)?
Answer: 9.31 µM (inactive)

Question: And the GI50 (NCI-H522)?
Answer: 13.9 µM (inactive)

Question: What about the GI50 (MDA-MB-231) of the same molecule?
Answer: 14.1 µM (inactive)

Question: What about the GI50 (COLO 205) of the same molecule?
Answer: 2.14 µM (inactive)

Question: What about the GI50 (A549) of the same molecule?
Answer: 27.5 µM (inactive)

Question: And the GI50 (SK-MEL-28)?
Answer: 21.3 µM (inactive)

Question: And the GI50 (NCI-H460)?
Answer: 12.4 µM (inactive)

Question: What about the GI50 (BT-549) of the same molecule?
Answer: 13.6 µM (inactive)

Question: What about the GI50 (SN12C) of the same molecule?
Answer: 11.1 µM (inactive)

Question: And the GI50 (SF-295)?
Answer: 22.2 µM (inactive)

Question: What about the GI50 (RXF 393) of the same molecule?
Answer: 11.2 µM (inactive)

Question: What about the GI50 (ACHN) of the same molecule?
Answer: 13.3 µM (inactive)

Question: What about the GI50 (HOP-92) of the same molecule?
Answer: 16.1 µM (inactive)

Question: And the GI50 (NCI/ADR-RES)?
Answer: 11.8 µM (inactive)

Question: And the GI50 (SNB-75)?
Answer: 46.5 µM (inactive)

Question: What about the GI50 (U-251) of the same molecule?
Answer: 14.8 µM (inactive)

Question: And the GI50 (DU-145)?
Answer: 19 µM (inactive)

Question: And the GI50 (SK-MEL-2)?
Answer: 15.8 µM (inactive)

Question: And the GI50 (Hs-578T)?
Answer: 19.3 µM (inactive)

Question: What about the GI50 (MOLT-4) of the same molecule?
Answer: 10 µM (inactive)

Question: What about the GI50 (HCT-116) of the same molecule?
Answer: 7.26 µM (inactive)

Question: And the GI50 (SF-268)?
Answer: 31.6 µM (inactive)

Question: What about the GI50 (SW-620) of the same molecule?
Answer: 22.9 µM (inactive)

Question: What about the GI50 (NCI-H23) of the same molecule?
Answer: 14.8 µM (inactive)

Question: What about the GI50 (CCRF-CEM) of the same molecule?
Answer: 14.1 µM (inactive)

Question: And the GI50 (IGROV-1)?
Answer: 28.1 µM (inactive)

Question: What about the GI50 (T47D) of the same molecule?
Answer: 8.45 µM (inactive)

Question: And the GI50 (MCF7)?
Answer: 13.6 µM (inactive)

Question: What about the GI50 (SF-539) of the same molecule?
Answer: 13 µM (inactive)

Question: And the GI50 (A498)?
Answer: 8.36 µM (inactive)

Question: And the GI50 (SK-OV-3)?
Answer: > 100 µM (inactive)

Question: What about the GI50 (OVCAR-4) of the same molecule?
Answer: 24.8 µM (inactive)

Question: What about the GI50 (HL-60) of the same molecule?
Answer: 5.53 µM (inactive)

Question: And the GI50 (SNB-19)?
Answer: 42.5 µM (inactive)

Question: And the GI50 (MDA-MB-435)?
Answer: 16.8 µM (inactive)

Question: What about the GI50 (NCI-H226) of the same molecule?
Answer: 13 µM (inactive)

Question: And the GI50 (EKVX)?
Answer: 6.07 µM (inactive)

Question: What about the GI50 (K562) of the same molecule?
Answer: 4.47 µM (inactive)

Question: And the GI50 (HT-29)?
Answer: 4.53 µM (inactive)

Question: And the GI50 (UACC-62)?
Answer: 16.1 µM (inactive)

Question: And the GI50 (TK-10)?
Answer: 14.3 µM (inactive)

Question: And the GI50 (MDA-N)?
Answer: 11.8 µM (inactive)
